PubChem BioAssay AID624330 (Southern Research Specialized Biocontainment Screening …, 2012)

Target: Rac GTPase-activating protein 1 (Homo sapiens) (UniProt Q9H0H5)
Assay: MgcRacGAP GTPase-activating activity inhibitors, confirmation, biochemical, ADP Hunter fluorescence, primary and confirmatory (AID 624330);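 note: fluorescence reports GDP produced by GAP-driven GTP hydrolysis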
Details: MgcRacGAP-stimulated Rac1 GTP hydrolysis, GST-tagged Rac1 F28L mutant substrate

Rac GTPase-activating protein 1 (Homo sapiens), sequence (Q9H0H5 whole entry, looked up): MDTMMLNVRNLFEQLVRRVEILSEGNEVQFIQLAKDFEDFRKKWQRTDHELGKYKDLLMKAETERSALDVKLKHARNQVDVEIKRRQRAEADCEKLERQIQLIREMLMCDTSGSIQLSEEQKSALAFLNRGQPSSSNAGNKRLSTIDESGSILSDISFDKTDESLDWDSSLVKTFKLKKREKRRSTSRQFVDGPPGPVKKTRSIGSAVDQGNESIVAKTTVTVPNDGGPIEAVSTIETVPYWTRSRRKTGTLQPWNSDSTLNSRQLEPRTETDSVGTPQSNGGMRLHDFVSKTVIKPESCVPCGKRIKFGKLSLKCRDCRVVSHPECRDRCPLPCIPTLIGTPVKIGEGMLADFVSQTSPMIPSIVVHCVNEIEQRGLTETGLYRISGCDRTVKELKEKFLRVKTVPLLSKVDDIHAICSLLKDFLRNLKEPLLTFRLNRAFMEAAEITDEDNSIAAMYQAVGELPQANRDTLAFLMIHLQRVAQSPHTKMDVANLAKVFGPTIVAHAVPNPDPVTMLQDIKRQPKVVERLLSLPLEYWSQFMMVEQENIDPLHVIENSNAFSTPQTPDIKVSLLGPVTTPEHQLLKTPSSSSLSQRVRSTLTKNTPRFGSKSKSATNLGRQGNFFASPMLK

SMILES | IC50
C#CCOCCOCCOCCNc1nc(N2CCN(C(=O)[C@H](CCCCN)n3cc([C@@H](N)C(C)CC)nn3)CC2)nc(N2CCN(C(=O)[C@H](Cc3cc4ccccc4[nH]3)n3cc([C@@H](N)C(C)CC)nn3)CC2)n1 (some centres not stated) | 67.9 µM
C#CCOCCOCCOCCNc1nc(N2CCN(C(=O)CCCCCCCCCCNC(=O)[C@@H](CCSC)n3cc(CCO)nn3)CC2)nc(N2CCN(C(=O)CCCCCCCCCCNC(=O)[C@H](CO)n3cc(CCCCCN)nn3)CC2)n1 | 49.6 µM
